Activity calls are given as the source filed them.
Assays:
[1] = molecular target: DNA dC->dU-editing enzyme APOBEC-3A (Homo sapiens, UniProt P31941); experiment: A3A deaminase inhibition for selectivity – biochemical, dose response (AID 504722); type: functional
[2] = molecular target: Peroxisome proliferator-activated receptor gamma/Nuclear receptor coactivator 1 (Homo sapiens, UniProt P37231); type: functional;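 note: agonist potency as compounds enhance coactivator SRC-1 recruitment to PPARgamma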
Sequence of Peroxisome proliferator-activated receptor gamma/Nuclear receptor coactivator 1 (P37231 whole entry): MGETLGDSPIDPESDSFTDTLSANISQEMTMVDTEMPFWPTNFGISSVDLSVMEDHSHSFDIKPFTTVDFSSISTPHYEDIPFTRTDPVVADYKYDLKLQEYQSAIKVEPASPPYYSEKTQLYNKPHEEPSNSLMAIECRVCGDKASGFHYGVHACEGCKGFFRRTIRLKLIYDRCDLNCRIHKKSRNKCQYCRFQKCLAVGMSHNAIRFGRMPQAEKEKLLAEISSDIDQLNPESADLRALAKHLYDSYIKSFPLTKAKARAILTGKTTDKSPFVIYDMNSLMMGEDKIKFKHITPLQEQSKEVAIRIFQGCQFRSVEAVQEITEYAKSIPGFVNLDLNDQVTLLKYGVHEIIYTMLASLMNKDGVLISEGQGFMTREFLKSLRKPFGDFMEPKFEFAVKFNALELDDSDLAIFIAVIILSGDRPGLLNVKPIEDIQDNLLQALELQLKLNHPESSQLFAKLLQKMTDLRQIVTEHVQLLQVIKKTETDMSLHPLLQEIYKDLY
Sequence of Peroxisome proliferator-activated receptor gamma/Nuclear receptor coactivator 1 (Q15788 whole entry, further chain): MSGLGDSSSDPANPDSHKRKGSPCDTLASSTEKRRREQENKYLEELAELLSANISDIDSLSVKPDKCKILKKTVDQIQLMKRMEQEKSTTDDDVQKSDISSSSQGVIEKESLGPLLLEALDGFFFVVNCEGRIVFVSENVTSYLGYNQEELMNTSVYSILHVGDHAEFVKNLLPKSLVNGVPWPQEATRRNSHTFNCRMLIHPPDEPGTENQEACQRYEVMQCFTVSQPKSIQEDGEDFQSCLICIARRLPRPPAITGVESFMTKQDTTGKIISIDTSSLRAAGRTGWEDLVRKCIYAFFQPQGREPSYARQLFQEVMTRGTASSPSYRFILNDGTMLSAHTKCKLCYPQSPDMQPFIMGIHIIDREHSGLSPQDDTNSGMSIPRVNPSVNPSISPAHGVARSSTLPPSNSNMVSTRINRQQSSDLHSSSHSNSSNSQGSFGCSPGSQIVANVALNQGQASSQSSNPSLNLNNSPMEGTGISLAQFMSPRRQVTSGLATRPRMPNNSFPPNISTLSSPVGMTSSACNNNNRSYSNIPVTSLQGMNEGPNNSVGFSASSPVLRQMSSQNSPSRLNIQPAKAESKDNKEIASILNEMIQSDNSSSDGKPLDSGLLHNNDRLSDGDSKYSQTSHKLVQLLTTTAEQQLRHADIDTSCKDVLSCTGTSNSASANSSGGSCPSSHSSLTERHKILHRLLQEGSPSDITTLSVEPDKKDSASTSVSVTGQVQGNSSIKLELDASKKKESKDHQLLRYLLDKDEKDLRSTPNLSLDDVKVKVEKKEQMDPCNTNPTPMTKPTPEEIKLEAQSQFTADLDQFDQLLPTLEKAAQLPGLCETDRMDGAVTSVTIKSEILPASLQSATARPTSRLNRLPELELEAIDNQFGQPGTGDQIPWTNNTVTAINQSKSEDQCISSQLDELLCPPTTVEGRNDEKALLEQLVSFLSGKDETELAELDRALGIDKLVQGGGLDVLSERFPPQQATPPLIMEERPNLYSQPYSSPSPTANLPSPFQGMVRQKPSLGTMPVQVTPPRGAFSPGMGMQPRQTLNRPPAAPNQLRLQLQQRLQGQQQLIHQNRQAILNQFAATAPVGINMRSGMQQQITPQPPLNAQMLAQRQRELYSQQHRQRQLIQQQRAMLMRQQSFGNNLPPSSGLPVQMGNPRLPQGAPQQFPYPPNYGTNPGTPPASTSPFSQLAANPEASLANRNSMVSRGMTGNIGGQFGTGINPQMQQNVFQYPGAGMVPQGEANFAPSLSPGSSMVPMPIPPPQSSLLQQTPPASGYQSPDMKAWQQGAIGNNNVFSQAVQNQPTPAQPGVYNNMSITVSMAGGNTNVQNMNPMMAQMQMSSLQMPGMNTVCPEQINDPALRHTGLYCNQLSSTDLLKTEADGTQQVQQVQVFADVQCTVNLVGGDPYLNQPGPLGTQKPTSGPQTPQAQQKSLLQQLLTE

[3] = molecular target: Peroxisome proliferator-activated receptor gamma/Nuclear receptor coactivator 3 (Homo sapiens, UniProt P37231); type: functional;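 note: agonist potency for raising coactivator recruitment to the receptor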
[4] = molecular target: Peroxisome proliferator-activated receptor gamma/Nuclear receptor coactivator 2 (Homo sapiens, UniProt P37231); type: functional;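 note: agonist potency for raising coactivator recruitment to the receptor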
[5] = molecular target: DNA dC->dU-editing enzyme APOBEC-3G (Homo sapiens, UniProt Q9HC16); experiment: Dose Response confirmation of small molecule APOBEC3G DNA Deaminase Inhibitors via a fluorescence-based single-stranded DNA deaminase assay. [Related pubchem assays (depositor defined):AID493012, AID493028]; type: functional
Sequence of DNA dC->dU-editing enzyme APOBEC-3G (Q9HC16 whole entry): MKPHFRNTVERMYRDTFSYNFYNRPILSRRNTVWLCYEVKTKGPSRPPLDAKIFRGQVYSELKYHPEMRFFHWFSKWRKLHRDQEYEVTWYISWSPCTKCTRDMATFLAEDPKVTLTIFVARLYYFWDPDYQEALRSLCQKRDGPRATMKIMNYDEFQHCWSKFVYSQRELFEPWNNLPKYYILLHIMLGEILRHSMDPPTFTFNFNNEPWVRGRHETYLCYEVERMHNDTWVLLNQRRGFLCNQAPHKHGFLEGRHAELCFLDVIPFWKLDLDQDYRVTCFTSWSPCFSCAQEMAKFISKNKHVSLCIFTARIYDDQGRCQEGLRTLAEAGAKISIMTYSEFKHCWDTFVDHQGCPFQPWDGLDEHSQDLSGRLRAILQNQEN

[6] = molecular target: T1, Bcl-2-like protein 10 (Homo sapiens, UniProt Q9HD36); experiment: Bcl-B/TR3 peptide binding disruption – biochemical, fluorescence polarization, FITC-TR3 peptide, selectivity assay for Bfl-1 inhibitor project, primary screen (AID 748);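 note: fluorescence polarization from a fluorescein-labelled TR3 peptide binding purified Bcl-B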
T1 sequence (Q9HD36 whole entry): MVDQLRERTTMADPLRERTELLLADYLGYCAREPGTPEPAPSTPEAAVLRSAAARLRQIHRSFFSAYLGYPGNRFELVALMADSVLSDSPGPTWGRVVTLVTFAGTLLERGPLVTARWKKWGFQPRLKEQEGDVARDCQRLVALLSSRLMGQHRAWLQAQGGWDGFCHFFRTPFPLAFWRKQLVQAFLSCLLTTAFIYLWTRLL

[7] = molecular target: T2, Coagulation factor XII (Homo sapiens, UniProt P00748); type: functional;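 note: activated factor XIIa alpha cleaving a fluorogenic AMC peptide substrate; inhibitor potency from loss of enzyme activity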
T2 sequence (P00748 whole entry): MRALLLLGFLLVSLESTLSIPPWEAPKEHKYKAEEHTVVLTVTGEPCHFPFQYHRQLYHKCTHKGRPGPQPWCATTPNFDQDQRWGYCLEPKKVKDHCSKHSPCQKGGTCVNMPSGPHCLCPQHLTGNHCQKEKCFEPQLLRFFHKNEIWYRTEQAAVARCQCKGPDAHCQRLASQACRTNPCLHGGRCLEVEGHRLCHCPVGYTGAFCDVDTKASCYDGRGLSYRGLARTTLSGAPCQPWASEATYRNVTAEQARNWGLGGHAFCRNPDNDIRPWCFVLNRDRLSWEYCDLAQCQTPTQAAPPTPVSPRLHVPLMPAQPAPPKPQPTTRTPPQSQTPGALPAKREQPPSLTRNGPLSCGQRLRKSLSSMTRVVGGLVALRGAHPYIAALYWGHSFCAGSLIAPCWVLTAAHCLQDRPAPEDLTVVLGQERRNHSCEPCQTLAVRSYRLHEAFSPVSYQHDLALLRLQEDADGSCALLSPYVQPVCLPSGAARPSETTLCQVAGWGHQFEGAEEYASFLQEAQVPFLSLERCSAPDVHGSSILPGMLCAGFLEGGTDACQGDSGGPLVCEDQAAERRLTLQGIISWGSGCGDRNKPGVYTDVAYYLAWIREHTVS

[8] = molecular target: T3, Estrogen receptor beta (Homo sapiens, UniProt Q92731);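 note: recombinant ER-beta bound to coactivator SRC1 peptide in presence of estradiol agonist; inhibitors block coactivator peptide binding and lower the FRET signal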
T3 sequence (Q92731 whole entry): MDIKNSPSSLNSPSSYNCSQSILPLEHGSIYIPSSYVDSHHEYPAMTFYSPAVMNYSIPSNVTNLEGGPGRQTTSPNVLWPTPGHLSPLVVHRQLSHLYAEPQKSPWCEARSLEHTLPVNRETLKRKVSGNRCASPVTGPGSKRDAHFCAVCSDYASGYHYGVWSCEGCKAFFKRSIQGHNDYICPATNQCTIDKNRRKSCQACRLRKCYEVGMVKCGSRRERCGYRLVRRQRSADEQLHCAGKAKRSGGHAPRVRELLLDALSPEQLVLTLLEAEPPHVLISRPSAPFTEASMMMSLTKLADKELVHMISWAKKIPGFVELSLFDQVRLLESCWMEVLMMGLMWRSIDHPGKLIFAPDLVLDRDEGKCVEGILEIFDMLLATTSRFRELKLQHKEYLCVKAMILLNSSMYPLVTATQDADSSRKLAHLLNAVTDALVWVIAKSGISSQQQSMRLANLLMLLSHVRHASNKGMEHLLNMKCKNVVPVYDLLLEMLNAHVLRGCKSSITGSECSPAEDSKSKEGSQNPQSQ

[9] = molecular target: T3, Estrogen receptor beta; experiment: blockers of SRC-3 recruitment to ERβ – biochemical, ELISA, streptavidin-HRP readout, orthogonal assay, confirmation (AID 1060)
[10] = molecular target: Eukaryotic translation initiation factor 4E (Mus musculus, UniProt P63073); experiment: blockers of eIF4G binding by eIF4E – biochemical, TR-FRET, dose response (AID 855); type: functional;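 note: potency for disrupting eIF4E binding to eIF4GI seen as loss of FRET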
Sequence of Eukaryotic translation initiation factor 4E (P63073 whole entry): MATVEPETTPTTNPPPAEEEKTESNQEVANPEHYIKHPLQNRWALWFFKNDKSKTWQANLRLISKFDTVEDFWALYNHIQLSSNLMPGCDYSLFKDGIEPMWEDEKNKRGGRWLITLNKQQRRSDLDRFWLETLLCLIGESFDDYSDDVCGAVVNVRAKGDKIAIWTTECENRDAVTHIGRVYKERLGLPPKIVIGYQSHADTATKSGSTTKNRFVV

[11] = molecular target: T4, Rac GTPase-activating protein 1 (Homo sapiens, UniProt Q9H0H5); experiment: blockers of MgcRacGAP-driven Rac1 GTP hydrolysis – biochemical, ADP Hunter fluorescence, primary and confirmatory, confirmation (AID 624330); type: functional
T4 sequence (Q9H0H5 whole entry): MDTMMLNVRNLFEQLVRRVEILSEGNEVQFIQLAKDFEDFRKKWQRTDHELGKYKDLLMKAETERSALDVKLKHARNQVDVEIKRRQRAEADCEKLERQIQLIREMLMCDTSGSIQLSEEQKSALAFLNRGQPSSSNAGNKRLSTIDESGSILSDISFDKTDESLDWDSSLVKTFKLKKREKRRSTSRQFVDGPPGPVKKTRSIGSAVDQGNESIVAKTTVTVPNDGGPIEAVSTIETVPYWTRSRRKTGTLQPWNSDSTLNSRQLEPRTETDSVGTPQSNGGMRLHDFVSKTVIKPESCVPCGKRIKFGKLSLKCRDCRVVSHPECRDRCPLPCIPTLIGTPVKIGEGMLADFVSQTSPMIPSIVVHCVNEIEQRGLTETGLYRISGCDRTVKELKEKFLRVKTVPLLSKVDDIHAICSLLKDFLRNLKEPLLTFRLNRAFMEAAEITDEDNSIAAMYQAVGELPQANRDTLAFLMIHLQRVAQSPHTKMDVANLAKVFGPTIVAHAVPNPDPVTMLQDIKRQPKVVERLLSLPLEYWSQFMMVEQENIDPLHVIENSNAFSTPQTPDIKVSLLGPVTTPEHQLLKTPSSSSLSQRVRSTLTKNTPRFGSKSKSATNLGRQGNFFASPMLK

[12] = molecular target: T5, Long-chain-fatty-acid--AMP ligase FadD28 (Mycobacterium tuberculosis, UniProt P9WQ59); experiment: Fluorescence polarization aasay to screen for inhibitors that compete for the binding of FadD28 to a bisubstrate Measured in Biochemical System Using Plate Reader - 2147-01_Inhibitor_Dose_CherryPick_Activity.; type: functional, Mycobacterium tuberculosis H37Rv
T5 sequence (P9WQ59 whole entry): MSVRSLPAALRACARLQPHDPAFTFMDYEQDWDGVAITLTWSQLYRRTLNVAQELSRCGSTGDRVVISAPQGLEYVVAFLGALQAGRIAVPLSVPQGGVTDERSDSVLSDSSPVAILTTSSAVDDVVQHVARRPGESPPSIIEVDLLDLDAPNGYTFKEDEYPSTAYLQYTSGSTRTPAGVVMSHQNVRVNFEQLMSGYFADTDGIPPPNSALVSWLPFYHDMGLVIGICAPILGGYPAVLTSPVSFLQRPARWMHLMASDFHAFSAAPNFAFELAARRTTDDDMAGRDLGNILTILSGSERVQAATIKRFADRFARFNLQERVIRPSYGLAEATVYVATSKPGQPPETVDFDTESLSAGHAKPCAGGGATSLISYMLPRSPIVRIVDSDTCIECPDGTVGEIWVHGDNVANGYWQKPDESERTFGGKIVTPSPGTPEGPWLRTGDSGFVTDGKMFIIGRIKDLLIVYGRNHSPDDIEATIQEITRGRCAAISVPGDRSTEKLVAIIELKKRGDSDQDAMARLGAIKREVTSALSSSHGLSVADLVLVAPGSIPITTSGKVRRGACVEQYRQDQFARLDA

[13] = molecular target: T6, Replicative DNA helicase DnaB (Mycobacterium tuberculosis, UniProt P9WMR3); experiment: DnaB intein splicing inhibitors, dose response, biochemical, cell-free fluorescence (AID 449749); type: functional
T6 sequence (P9WMR3 whole entry): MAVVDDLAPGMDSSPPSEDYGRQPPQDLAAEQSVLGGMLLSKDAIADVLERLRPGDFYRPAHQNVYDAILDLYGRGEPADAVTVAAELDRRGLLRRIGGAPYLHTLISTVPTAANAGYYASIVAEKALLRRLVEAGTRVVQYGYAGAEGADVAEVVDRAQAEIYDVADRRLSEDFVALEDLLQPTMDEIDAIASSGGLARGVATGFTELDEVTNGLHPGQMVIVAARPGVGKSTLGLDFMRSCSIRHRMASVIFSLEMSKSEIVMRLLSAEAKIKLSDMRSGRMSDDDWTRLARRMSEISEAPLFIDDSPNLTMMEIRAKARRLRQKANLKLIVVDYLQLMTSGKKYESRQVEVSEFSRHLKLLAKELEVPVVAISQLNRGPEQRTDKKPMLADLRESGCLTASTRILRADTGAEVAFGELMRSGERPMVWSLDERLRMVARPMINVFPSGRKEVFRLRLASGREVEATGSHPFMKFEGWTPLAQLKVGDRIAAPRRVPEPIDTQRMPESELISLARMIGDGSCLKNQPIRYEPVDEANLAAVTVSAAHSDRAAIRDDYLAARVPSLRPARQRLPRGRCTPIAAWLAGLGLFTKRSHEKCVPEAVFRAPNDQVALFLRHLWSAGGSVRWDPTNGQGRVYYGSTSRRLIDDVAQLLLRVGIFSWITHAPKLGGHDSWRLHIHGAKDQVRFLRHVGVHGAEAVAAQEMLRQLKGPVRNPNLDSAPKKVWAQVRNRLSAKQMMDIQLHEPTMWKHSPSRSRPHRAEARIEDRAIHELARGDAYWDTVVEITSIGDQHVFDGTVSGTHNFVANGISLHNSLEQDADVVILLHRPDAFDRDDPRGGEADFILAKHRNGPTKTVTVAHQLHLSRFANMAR

[14] = molecular target: Nonstructural protein 1 (Influenza A virus, UniProt Q194T2); type: functional, Influenza A virus (A/California/07/2009(H1N1))
Sequence of Nonstructural protein 1 (Q194T2 whole entry): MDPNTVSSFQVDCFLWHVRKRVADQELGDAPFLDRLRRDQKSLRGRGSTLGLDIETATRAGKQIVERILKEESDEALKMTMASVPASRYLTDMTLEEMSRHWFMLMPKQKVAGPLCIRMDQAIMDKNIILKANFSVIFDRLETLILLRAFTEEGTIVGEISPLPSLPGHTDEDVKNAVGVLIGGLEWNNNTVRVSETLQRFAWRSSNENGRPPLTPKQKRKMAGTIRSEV

[15] = molecular target: T7, Protein RecA (Mycobacterium tuberculosis, UniProt P9WHJ3); experiment: Fluorescence Cell-Free Homogeneous Dose Retest to Identify Inhibitors of RecA-Intein Splicing Activity. [Related pubchem assays (depositor defined):AID2097, AID2223, AID489010, AID492950]; type: functional
T7 sequence (P9WHJ3 whole entry): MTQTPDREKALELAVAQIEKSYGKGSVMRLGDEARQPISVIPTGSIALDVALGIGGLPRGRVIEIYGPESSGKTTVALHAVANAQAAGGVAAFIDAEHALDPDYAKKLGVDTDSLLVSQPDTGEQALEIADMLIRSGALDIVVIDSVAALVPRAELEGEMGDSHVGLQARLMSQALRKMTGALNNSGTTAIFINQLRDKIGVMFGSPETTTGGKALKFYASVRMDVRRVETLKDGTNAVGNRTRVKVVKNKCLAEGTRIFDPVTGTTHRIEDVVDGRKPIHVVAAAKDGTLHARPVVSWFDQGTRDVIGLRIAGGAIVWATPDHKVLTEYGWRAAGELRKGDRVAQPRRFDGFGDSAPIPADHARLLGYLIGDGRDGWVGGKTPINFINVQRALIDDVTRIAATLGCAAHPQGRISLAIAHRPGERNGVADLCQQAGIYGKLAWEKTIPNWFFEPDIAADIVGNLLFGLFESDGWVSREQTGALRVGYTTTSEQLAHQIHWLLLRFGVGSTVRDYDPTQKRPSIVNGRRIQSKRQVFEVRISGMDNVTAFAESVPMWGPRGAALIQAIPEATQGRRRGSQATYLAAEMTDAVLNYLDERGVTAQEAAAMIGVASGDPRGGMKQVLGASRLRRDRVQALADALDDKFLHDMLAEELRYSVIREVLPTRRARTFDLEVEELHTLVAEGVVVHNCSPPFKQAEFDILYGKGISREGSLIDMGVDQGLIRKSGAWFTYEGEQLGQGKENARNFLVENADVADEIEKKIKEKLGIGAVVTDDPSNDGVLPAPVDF

[16] = molecular target: T8, Heat shock factor protein 1 (Mus musculus, UniProt P38532); experiment: enhancement of HSF1-driven luciferase signal – cell-based, NIH3T3, luminescence, dose retest, confirmation (AID 435004); type: functional;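 note: stress induced by proteasome inhibitor MG132 added 30 min after compound; luciferase reporter driven by HSF1 response element in NIH3T3 cells; actives raise luminescence as potentiators of the MG132 stress response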
T8 sequence (P38532 whole entry): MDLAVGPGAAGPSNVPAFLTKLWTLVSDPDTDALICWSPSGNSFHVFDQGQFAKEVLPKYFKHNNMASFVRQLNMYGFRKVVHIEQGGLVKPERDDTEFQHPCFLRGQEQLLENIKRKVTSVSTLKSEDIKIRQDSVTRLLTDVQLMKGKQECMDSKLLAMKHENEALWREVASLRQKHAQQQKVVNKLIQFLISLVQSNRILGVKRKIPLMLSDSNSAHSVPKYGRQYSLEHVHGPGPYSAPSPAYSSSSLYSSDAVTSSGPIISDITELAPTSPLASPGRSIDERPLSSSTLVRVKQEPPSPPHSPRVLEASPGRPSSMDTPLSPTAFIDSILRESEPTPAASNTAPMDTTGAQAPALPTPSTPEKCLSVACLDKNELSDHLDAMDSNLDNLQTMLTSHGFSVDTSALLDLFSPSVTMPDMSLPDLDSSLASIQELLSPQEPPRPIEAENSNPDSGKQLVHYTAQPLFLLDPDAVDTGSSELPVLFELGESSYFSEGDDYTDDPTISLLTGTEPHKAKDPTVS

[17] = molecular target: Dual specificity tyrosine-phosphorylation-regulated kinase 1A (Rattus norvegicus, UniProt Q63470); type: biochemical, Homo sapiens
[18] = molecular target: Trypsin (Sus scrofa, UniProt P00761); experiment: trypsin protease activity blockade – biochemical, quenched peptide fluorescence, cherry-pick, selectivity assay for Rce1 protease inhibitor project, dose response (AID 488789)
Sequence of Trypsin (P00761 whole entry): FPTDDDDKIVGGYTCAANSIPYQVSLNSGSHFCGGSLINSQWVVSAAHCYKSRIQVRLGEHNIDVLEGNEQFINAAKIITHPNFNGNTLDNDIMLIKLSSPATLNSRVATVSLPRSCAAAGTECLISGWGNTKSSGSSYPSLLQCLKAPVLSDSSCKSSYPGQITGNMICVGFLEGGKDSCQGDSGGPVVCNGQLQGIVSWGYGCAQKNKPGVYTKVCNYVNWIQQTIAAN

Sequence of DNA dC->dU-editing enzyme APOBEC-3A (P31941 whole entry): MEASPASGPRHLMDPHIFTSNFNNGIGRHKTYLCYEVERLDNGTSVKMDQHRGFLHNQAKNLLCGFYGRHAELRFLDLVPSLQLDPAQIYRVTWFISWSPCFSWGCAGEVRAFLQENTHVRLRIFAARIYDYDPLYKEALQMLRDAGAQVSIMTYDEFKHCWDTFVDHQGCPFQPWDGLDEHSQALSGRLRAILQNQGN

For `CC(C)(C)c1cc(C(=S)N2CCN(CCO)CC2)cc(C(C)(C)C)c1O`, the IC50 [1] was > 100 µM (inactive), the EC50 [2] was > 79.4 µM (not active) and the EC50 [3] was > 79.4 µM (not active). For the same compound, the EC50 [4] was > 79.4 µM (not active) and the IC50 [5] was 13.4 µM (active).

In the case of `COCc1cc(C2SCC(=O)Nc3c2c(O)nn3C(C)C)ccc1OC` (stereo not given), the IC50 [6] is reported as > 100 µM (inactive).

`O=C(COC(=O)COc1ccccc1Cl)Nc1ccccc1OC(F)F` was tested, and the IC50 [7] was > 50 µM (inactive).

In the case of `CC(=O)Nc1ccc(OC(=O)CC2SC(=O)NC2=O)cc1` (stereo not given), the IC50 [8] is reported as 8.53 µM (active), the IC50 [6] is reported as > 100 µM (inactive) and the IC50 [9] is reported as < 0.023 µM (not active).

With `CCn1c(=O)c2c3c(sc2n2c(=S)[nH]nc12)CCC3` the IC50 [1] was > 100 µM (inactive), the IC50 [10] was > 64 µM (inactive) and the IC50 [5] was 4.78 µM (active). The IC50 [11] was 26.4 µM (active).

In the case of `Cc1ccc(C2=NN(S(=O)(=O)c3ccccc3)C(c3ccccc3O)C2)cc1` (stereo not given), the IC50 [7] is reported as > 50 µM (inactive) and the AC50 [12] is reported as > 100 µM (inactive).

In the case of `CCOc1ccc(N(CC(=O)Nc2ccc3c(c2)OCCO3)S(=O)(=O)c2c(C)noc2C)cc1`, the IC50 [7] is reported as > 50 µM (inactive).

`O=C1c2ccccc2-c2onc3ccc(N4CCCC4)c1c23` was tested, and the AC50 [13] was > 380 µM (inactive), the IC50 [14] was 23.6 µM (active) and the EC50 [15] was 0.606 µM (active). For the same compound, the IC50 [10] was 50 µM (inactive), the EC50 [16] was > 260 µM (inactive) and the AC50 [17] was 1.67 µM (active). For the same compound, the AC50 [12] was 15.1 µM (active).

In the case of `COc1ccc2oc(-c3ccccc3)c(C(=O)N3CCOCC3)c2c1`, the AC50 [18] is reported as 4.55 µM (active).

From ChEMBL document CHEMBL1201862, “PubChem BioAssay data set” (2004)
